Assay results published in paper PMC2001498, “Effects of transplantation and resection of a radiation-induced rat insulinoma on glucose homeostasis and the endocrine pancreas” (British Journal of Cancer, 1986).
Counter-ions that a name gives are not always drawn.

Test system: pancreatic B cell function
Experiment: Plasma insulin response to intraperitoneal arginine after tumour resection
Conditions: plasma insulin at 0, 30 and 60 min, groups of 6 rats

## N=C(N)NCCC[C@H](N)C(=O)O [arginine, arginine hydrochloride]
Arginine hydrochloride 2 g kg-1 i.p. in 0.9% NaCl, ex-tumour bearing rats 1 day after resection
  plasma insulin response to arginine, 1 day after tumour resection: failed to evoke a plasma insulin response
Arginine hydrochloride 2 g kg-1 i.p., ex-tumour bearing rats 12 days after resection
  insulin response to arginine, 12 days after tumour resection: impaired
